Experimental data reported in PubChem BioAssay (NCI).
Several values for one entry are separate records, joined by “and”; a condition that tells them apart may be missing. Equal entries are not always repeated.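 Exposure lasted 48 hours, with cells grown in 96-well plates and compounds tested at five concentrations. Abbreviation: GI50, concentration required for 50% inhibition of growth. TGI: concentration producing complete growth inhibition.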

Legend:
Experiment in all cases: NCI tumour cell line growth inhibition, 48 h
SF-268 CNS = test system: SF-268 CNS
SR leukemia = test system: SR leukemia
SK-MEL-28 melanoma = test system: SK-MEL-28 melanoma
A498 renal = test system: A498 renal
OVCAR-3 ovarian = test system: OVCAR-3 ovarian
SK-OV-3 ovarian = test system: SK-OV-3 ovarian
IGROV1 ovarian = test system: IGROV1 ovarian
OVCAR-8 ovarian = test system: OVCAR-8 ovarian
SN12C renal = test system: SN12C renal
HCT-15 colon = test system: HCT-15 colon

Structure (SMILES)	TGI (SF-268 CNS)	TGI (SR leukemia) [µM]	TGI (SK-MEL-28 melanoma)	TGI (A498 renal)	TGI (OVCAR-3 ovarian)	TGI (SK-OV-3 ovarian)	TGI (IGROV1 ovarian)	TGI (OVCAR-8 ovarian)	TGI (SN12C renal)	TGI (HCT-15 colon)	GI50 (SF-268 CNS)	GI50 (SR leukemia)	GI50 (SK-MEL-28 melanoma)	GI50 (A498 renal)	GI50 (OVCAR-3 ovarian) [µM]	GI50 (SK-OV-3 ovarian)	GI50 (IGROV1 ovarian) [µM]	GI50 (OVCAR-8 ovarian) [µM]	GI50 (SN12C renal)	GI50 (HCT-15 colon)
COc1ccc(Nc2nc3c(N)cc(C(F)(F)F)cc3nc2-c2ccccc2)cc1	> 100 µM	> 100	> 100 µM	> 100 µM	> 100 µM	> 100 µM	> 100 µM	> 100 µM	> 100 µM	> 100 µM										
C=C1C(=O)C23C(O)C1CCC2C12CO[C@]3(O)[C@@H](O)C1C(C)(C)CCC2O (some centres not stated)	28.8 µM	> 100	11.4 µM	36.5 µM	30.3 µM	34.5 µM	20.3 µM	20.5 µM	27.9 µM	26.4 µM										
C#CCSc1nnnn1-c1ccc(Br)c(C)c1	> 100 µM	> 100	> 100 µM	81.1 µM	95.8 µM	> 100 µM	9.16 µM	> 100 µM	> 100 µM	> 100 µM	24.6 µM	19.8 µM	50.1 µM	18.9 µM	23.2	30 µM	2.77	20.3	19.1 µM	29 µM
C[CH2][Sn]([CH2]C)([O]C(=O)c1cc(OC)c(OC)c(OC)c1)[O][Sn]([CH2]C)([CH2]C)[O]C(=O)c1cc(OC)c(OC)c(OC)c1	44.1 µM	> 100	33.4 µM	43.9 µM	> 100 µM	> 100 µM	> 100 µM	> 62.4 µM	99.4 µM	> 79 µM	20.6 µM	36.3 µM	18.4 µM	25.6 µM	> 64.4	> 100 µM	> 100	> 42.8	44 µM	43 µM
C/C(=N\NC(=S)Nc1ccccc1)c1ccccn1	5.17 µM	11.3	4.94 µM	1.64 µM	0.0538 µM	2.22 µM	9.26 µM	2.54 µM	9.64 µM	13.2 µM	0.205 µM	0.0703 µM	1.68 µM	0.207 µM	< 0.01	0.51 µM	< 0.0163	< 0.0169	0.355 µM	0.0338 µM
CC1(C)OCC(C2OC(On3nnc4ccc(Cl)cc43)C3OC(C)(C)OC23)O1 (configuration not stated)	> 100 µM	> 100	> 100 µM	> 100 µM	> 100 µM	> 100 µM	> 100 µM	> 100 µM	> 100 µM	> 100 µM										
COc1cccc(C2C3=C(COC3=O)N(CCO)c3cc4c(cc32)CCC4)c1 (configuration not stated)	5.93 µM	0.165	> 50 µM	0.0483 µM	0.0591 µM		0.0692 µM	> 17.1 µM	> 32.6 µM	> 22.2 µM	0.0731 µM	0.015 µM	13.4 µM	0.0154 µM	0.018	0.0663 µM	0.0169	0.098	0.269 µM	0.122 µM
COC(=O)Oc1nn(C(=O)OC)c(=O)c2ccccc12 (tested in a mixture with another compound)	> 100 µM	> 100	> 100 µM	99.4 µM	> 100 µM	> 100 µM	> 100 µM	> 100 µM	> 100 µM	> 100 µM										
COc1cc(C2c3cc4c(cc3[C@@H](OCCN)[C@H]3COC(=O)C23)OCO4)cc(OC)c1O (some centres not stated)	1.48 µM	0.0693	2.37 µM	1.67 µM	3.06 µM	1.48 µM	4.55 µM	2.61 µM	0.562 µM	24.7 µM										
CN(C)CC1CCCC(CN(C)C)C1=O (configuration not stated)	31.7 µM and 65.6 µM	1.64	5.21 µM and 33.8 µM	34.5 µM and > 100 µM	5.47 µM and 3.64 µM	31.8 µM and > 58.3 µM	37.2 µM and 38.4 µM	5.86 µM and 10.6 µM	5.78 µM and 18.4 µM		11.5 µM and 23.4 µM	0.254 µM and 0.803 µM	2.17 µM and 18.3 µM	19.1 µM and > 100 µM		17.8 µM and > 44 µM			2.58 µM and 7.36 µM	1.28 µM and 8.54 µM
COc1ccc(C2=NN(c3ccc(S(N)(=O)=O)cc3)C(c3ccc(Cl)cc3)C2)c(O)c1 (configuration not stated)	25.5 µM	3.61	18.1 µM	14.5 µM	7.45 µM	56 µM	15.2 µM	44.4 µM	18.3 µM	13.9 µM	5.7 µM	0.897 µM	5.06 µM	3.89 µM	2.6	8.23 µM	3.63	4.74	5.09 µM	2.98 µM
COc1cc(-c2cn(-c3ccc(Cl)cc3)c(=O)n2-c2ccccc2)cc(OC)c1OC	> 100 µM	> 100	> 100 µM	> 92.4 µM	> 100 µM	> 100 µM	> 69.2 µM	> 100 µM	> 100 µM	> 100 µM	> 68.9 µM		56.4 µM	18.7 µM	> 100	74.9 µM	30.6	40.8	> 100 µM	> 100 µM
COc1ccc2c(c1)C(=O)/C(=C/c1ccc(OCC(=O)c3ccc(Cl)cc3)cc1)O2	48.6 µM	6.34	30.1 µM	> 100 µM	24.8 µM	> 100 µM	35.3 µM	> 100 µM	63.9 µM	26.3 µM	18.4 µM	2.15 µM	15.5 µM	48.9 µM	12.3	62.5 µM	11.1	42.4	17.3 µM	12.6 µM
COC(=O)C1(C)CCc2c(ccc3ccccc23)C1=O (configuration not stated)	> 100 µM	> 100	> 100 µM	81 µM	> 100 µM	> 100 µM	95.7 µM	> 100 µM	> 100 µM	> 100 µM										
c1ccc(COc2ccc(Nc3ncnc4ccc(-c5ccco5)cc34)cc2)cc1	> 25 µM	> 25	> 25 µM	> 21.6 µM	12.8 µM	8.16 µM	> 23.1 µM	> 25 µM	> 25 µM	12.3 µM	8.29 µM	6.7 µM	9.51 µM	5.39 µM	5.4	0.994 µM	7.11	11.3	8.49 µM	4.3 µM
O=c1[nH]cnc2c1nnn2C1C=C(CO)C(O)C1O (configuration not stated)	> 100 µM	> 100	> 100 µM	> 100 µM	> 100 µM	> 100 µM	> 100 µM	> 100 µM	> 100 µM	> 100 µM										
Cc1ccc2c(c1)/C(=N\N=C/c1cn(C(C)C)c3ccccc13)C(=O)N2	> 100 µM	> 100	> 100 µM	> 100 µM	31.9 µM	> 100 µM	> 100 µM	> 100 µM	> 100 µM	> 100 µM	4.9 µM	0.261 µM	21.9 µM	1.6 µM	0.311	> 100 µM	1.37	4.7	4.47 µM	2.12 µM
CC1OC(OC2C(OC3CCC4(C)C(CCC5(C)C4CC=C4C6CC(C)(C)CCC6(CO)C(O)CC45C)C3(C)C)OC(C(=O)O)C(OC3OC(COC4OC(CO)C(O)C(O)C4O)C(O)C(O)C3O)C2O)C(O)C(O)C1O (configuration not stated)	27.1 µM	5.63	9.02 µM	23.9 µM	24.7 µM	18 µM	17.5 µM	28.5 µM	9.19 µM	18.8 µM	13.1 µM	1.97 µM	1.96 µM	13.2 µM	12.7	6.08 µM	7.1	13.5	2.46 µM	8.27 µM
CC1(C)CC[C@]2(C(=O)O)CCC3(C)C(=CCC4[C@@]5(C)CC[C@H](OC6OCC(O)C(O)C6OC6OC(CO)C(O)C(O)C6O)C(C)(C)C5CC[C@]43C)C2C1 (some centres not stated)	4.61 µM	5.87	4.39 µM	4.09 µM	4.39 µM	4.25 µM	5.23 µM	4.12 µM	3.42 µM	4.38 µM										
O=C(O)Cc1ccccc1	> 2000 µM	> 1000	> 2000 µM	> 1000 µM and 1700 µM	> 2000 µM	> 2000 µM	> 2000 µM	> 2000 µM	> 2000 µM	> 1000 µM and 1710 µM	> 1000 µM		> 1000 µM	> 1000 µM		> 1000 µM	> 1000	> 1000	> 1000 µM	> 1000 µM
Oc1ccc(-c2nc(-c3ccc(F)cc3)c(-c3ccncc3)[nH]2)cc1	> 100 µM	52.8	84.7 µM	48.5 µM	86.9 µM	80.3 µM	29.4 µM	> 100 µM	> 100 µM	> 100 µM	19.3 µM	6.98 µM	6.05 µM	16.7 µM	15	5.21 µM	4.3	22.1	14.9 µM	13.2 µM
